Source: patent US7781437B2, “Substituted heterocyclic compounds with CXCR3 antagonist activity” (Schering Corporation, priority 2005, dated 2010)
Read-outs that look alike come from different tables or passages of the source.

Biological target: T1, Human CXCR3 (N-delta 4) (Homo sapiens, UniProt P49682)
T1 construct: CD8 leader (N); Flag tag; expressed in transfected cells; membrane preparation
T1 sequence (P49682 5-368 limits assumed): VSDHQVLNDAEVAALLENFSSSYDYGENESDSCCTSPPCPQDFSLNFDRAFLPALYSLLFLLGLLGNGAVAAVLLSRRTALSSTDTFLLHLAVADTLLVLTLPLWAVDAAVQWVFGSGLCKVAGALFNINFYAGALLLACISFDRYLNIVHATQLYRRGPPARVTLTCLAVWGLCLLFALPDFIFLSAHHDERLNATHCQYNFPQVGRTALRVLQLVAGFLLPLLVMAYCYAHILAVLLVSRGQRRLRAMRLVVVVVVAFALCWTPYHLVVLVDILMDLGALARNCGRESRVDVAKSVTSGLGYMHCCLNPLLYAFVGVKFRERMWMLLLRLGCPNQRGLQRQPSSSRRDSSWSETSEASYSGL
Test: Human CXCR3 (N-delta 4) Scintillation Proximity Assay (SPA), [125I] IP-10 binding to Ba/F3-hCXCR3 (N-delta 4) membranes
Details: [125I] IP-10 displacement
Text: The inventive compounds can readily be evaluated to determine activity at The CXCR3 receptors by known methods, such as, for example, Development of Human CXCR3 (N-delta 4) Binding Assay.
Cloning and Expression of Human CXCR3 (N-delta 4):
The DNA encoding human CXCR3 was cloned by PCR using human genomic DNA (Promega, Madison, Wis.) as a template. The PCR primers were designed based on the published sequence of human orphan receptor GPR9 (1) with incorporated restriction sites, a Kozak consensus sequence, CD8 leader and Flag tag. The PCR product was subcloned into the mammalian expression vector pME18Sneo, a derivative of the SR-alpha expression vector (designated as pME18Sneo-hCXCR3 (N-delta 4).
IL-3-dependent mouse pro-B cells Ba/F3 were transfected by electroporation in 0.4 ml Dulbecco's PBS containing 4×10^6 cells with 20 μg of pME18Sneo-hCXCR3 (N-delta 4) plasmid DNA. Cells were pulsed at 400 Volts, 100 OHMs, 960 μFd. The transfected cells were under selection with 1 mg/ml G418 (Life Technologies, Gaithersburg, Md.). G418-resistant Ba/F3 clones were screened for CXCR3 expression by specific binding of [^125I] IP-10 (NEN Life Science Products, Boston, Mass.).
Preparation of Ba/F3-hCXCR3 (N-delta 4) membranes:
Ba/F3 cells expressing human CXCR3 (N-delta 4) were pelleted and resuspended in the lysis buffer containing 10 mM HEPES , pH 7.5 and Complete® protease inhibitors (1 tablet per 100 ml) (Boehringer Mannheim, Indianapolis, Ind.) at a cell density of 20×10^6 cells per ml. After 5 minutes incubation on ice, cells were transferred to 4639 cell disruption bomb (Parr Instrument, Moline, Ill.) and applied with 1,500 psi of nitrogen for 30 minutes on ice. Large cellular debris was removed by centrifugation at 1,000×g. Cell membrane in the supernatant was sedimented at 100,000×g. The membrane was resuspended in the lysis buffer supplemented with 10% sucrose and stored at −80° C. Total protein concentration of the membrane was determined by BCA method from Pierce (Rockford, Ill.).
Human CXCR3 (N-delta 4) Scintillation Proximitv Assay (SPA):
For each assay point, 2 μg of membrane was preincubated for 1 hr with 300 μg wheat germ agglutinin (WGA) coated SPA beads (Amersham, Arlington Heights, Ill.) in the binding buffer (50 mM HEPES, 1 mM CaCl2, 5 mM MgCl2, 125 mM NaCI, 0.002% NaN3, 1.0% BSA) at room temperature. The beads were spun down, washed once, resuspended in the binding buffer and transferred to a 96-well Isoplate (Wallac, Gaithersburg, Md.). 25 pM of [^125I] IP-10 with tested compounds in a series of titration were added to start the reaction. After 3 hr reaction at room temperature, the amount of [^125I] IP-10 bound to the SPA beads was determined with a Wallac 1450 Microbeta counter.
The Ki values for the various example compounds of the present invention are given in the afore-mentioned Table 1. From these values, it would be apparent to the skilled artisan that the compounds of the invention have excellent utility CXCR3 antagonists.

[1] = specific Ki values (Table 2), read-out: Ki

| Compound | Ki (read-out: Ki rating) | Ki [1] |
| --- | --- | --- |
| CC[C@H]1CN(c2c(Cl)nc(-c3nnc(N)o3)c(=O)n2C)CCN1C1CCN(Cc2ccc(Cl)cc2)CC1 [Compound Number 1] | < 25 nM | 1.9 nM |
| CCNc1nnc(-c2nc(C)c(N3CCN(C4CCN(C(=O)c5ccc(Cl)nc5N)CC4)[C@@H](CC)C3)n(C)c2=O)o1 [Compound Number 2] | < 25 nM | 2.6 nM |
| CC[C@H]1CN(c2c(Cl)nc(-c3nnc(N)o3)c(=O)n2C)CCN1C1CCN(C(=O)c2ccc(Cl)nc2N)CC1 [Compound Number 3] | < 25 nM | 7.5 nM |
| CC[C@H]1CN(c2c(Cl)nc(C(N)=O)c(=O)n2C)CCN1C1CCN(Cc2ccc(Cl)cc2F)CC1 [Compound Number 4] | < 25 nM | 8.3 nM |
| CC[C@H]1CN(c2c(Cl)nc(-c3nnc(N)o3)c(=O)n2C)CCN1C1CCN(Cc2ccc(Cl)nc2)CC1 [Compound Number 5] | < 25 nM | 1.9 nM |
| CC[C@H]1CN(c2c(Cl)nc(-c3nnc(N)o3)c(=O)n2C)CCN1C1CCN(C(=O)c2ccc(Cl)cc2)CC1 [Compound Number 6] | 25 to 100 nM |  |
| CC[C@H]1CN(c2c(C)nc(C(N)=O)c(=O)n2C)CCN1C1CCN(Cc2ccc(Cl)cc2F)CC1 [Compound Number 7] | 25 to 100 nM |  |
| CC[C@H]1CN(c2c(Cl)nc(C(=O)OC)c(=O)n2C)CCN1C1CCN(Cc2ccc(Cl)cc2F)CC1 [Compound Number 8] | 25 to 100 nM |  |
| CC[C@H]1CN(c2c(Cl)nc(-c3nnc(N)o3)c(=O)n2C)CCN1C1CCN(Cc2cc(F)c(Cl)cc2F)CC1 [Compound Number 9] | 25 to 100 nM |  |
| CC[C@H]1CN(c2c(Cl)nc(C(N)=O)c(=O)n2C)CCN1C1CCN(Cc2ccc(Cl)nc2N)CC1 [Compound Number 10] | 25 to 100 nM |  |
| CC[C@H]1CN(c2c(Cl)nc(-c3nnc(N)o3)c(=O)n2C)CCN1C1CCN(Cc2cc(F)c(F)cc2Cl)CC1 [Compound Number 11] | 25 to 100 nM |  |
| CC[C@H]1CN(c2cnc(C(N)=O)c(=O)n2C)CCN1C1CCN(Cc2ccc(Cl)nc2N)CC1 [Compound Number 12] | > 100 nM |  |
| CC[C@H]1CN(c2nc(O)c(-c3nnc(N)o3)nc2Cl)CCN1C1CCN(Cc2ccc(Cl)cc2)CC1 [Compound Number 13] | > 100 nM |  |
